The text below walks through data of patent publication US11427553B2, “Dihydrooxadiazinones” (Bayer Aktiengesellschaft, priority 2017, dated 2022).

Broadly, the IC50 is the concentration at which inhibition is half-maximal.

In test [1] the test system is SK-MEL-3 cells. Description: Assay 1 cell proliferation measurement (CTG, 72 h), SK-MEL-3. In kind it is cell-based, human. As to conditions: Homo sapiens, SK-MEL3; Assay 1, 72 h, Cell Titer Glo; read-out: SK-MEL-3 IC50 [nM] (melanoma). The method, boiled down: (§1)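 Cells were plated, grown overnight at 37 °C, then treated 72 h with a 10-step 2.5-fold dilution series from 100 nM maximum final (0.3% DMSO vehicle). Viability was read by CellTiter-Glo luminescence. IC50 from a 4-parameter fit, normalised to a 0 h plate (maximum inhibition) and DMSO control (minimum inhibition).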
On the technique in general: Cellular ATP, detected with luciferase, serves as a proxy for viable cell number.

The test system of test [2] is HeLa cells. Kind of test: Assay 1 cell proliferation measurement (CTG, 72 h), HeLa. In kind it is cell-based, human. The following applies: Homo sapiens, HeLa; Assay 1, 72 h, Cell Titer Glo; read-out: HeLa IC50 [nM] (Cervical cancer). In short, it runs like this: as §1
Test [3] concerns the target human full length PDE3B (Homo sapiens (Human), UniProt Q13370). Description: Assay 5 PDE3B enzyme inhibition (3H-cAMP SPA). In kind it is biochemical. The following applies: Sf9 cell extract. The method, boiled down:
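Hydrolysis of tritiated cAMP by Sf9-expressed full-length human PDE3B proceeded 60 min at room temperature in Tris buffer pH 7.5 containing Mg2+, EDTA and BSA, with enzyme dilution keeping substrate consumption below 70%. IC50 derived from percent activity versus log compound concentration.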

Test [4] deals with human full length PDE3A (Homo sapiens (Human), UniProt Q14432). Kind of test: Assay 4 PDE3A enzyme inhibition (3H-cAMP SPA). In kind it is biochemical. The following applies: Sf9 cell extract. The method, boiled down: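 Hydrolysis of [8-3H]cAMP by Sf9-expressed full-length PDE3A was measured by scintillation proximity, with enzyme diluted to keep kinetics linear and substrate consumption below 70%. Incubation ran 60 min at room temperature at pH 7.5.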
Sequence of human full length PDE3A (Q14432 whole entry): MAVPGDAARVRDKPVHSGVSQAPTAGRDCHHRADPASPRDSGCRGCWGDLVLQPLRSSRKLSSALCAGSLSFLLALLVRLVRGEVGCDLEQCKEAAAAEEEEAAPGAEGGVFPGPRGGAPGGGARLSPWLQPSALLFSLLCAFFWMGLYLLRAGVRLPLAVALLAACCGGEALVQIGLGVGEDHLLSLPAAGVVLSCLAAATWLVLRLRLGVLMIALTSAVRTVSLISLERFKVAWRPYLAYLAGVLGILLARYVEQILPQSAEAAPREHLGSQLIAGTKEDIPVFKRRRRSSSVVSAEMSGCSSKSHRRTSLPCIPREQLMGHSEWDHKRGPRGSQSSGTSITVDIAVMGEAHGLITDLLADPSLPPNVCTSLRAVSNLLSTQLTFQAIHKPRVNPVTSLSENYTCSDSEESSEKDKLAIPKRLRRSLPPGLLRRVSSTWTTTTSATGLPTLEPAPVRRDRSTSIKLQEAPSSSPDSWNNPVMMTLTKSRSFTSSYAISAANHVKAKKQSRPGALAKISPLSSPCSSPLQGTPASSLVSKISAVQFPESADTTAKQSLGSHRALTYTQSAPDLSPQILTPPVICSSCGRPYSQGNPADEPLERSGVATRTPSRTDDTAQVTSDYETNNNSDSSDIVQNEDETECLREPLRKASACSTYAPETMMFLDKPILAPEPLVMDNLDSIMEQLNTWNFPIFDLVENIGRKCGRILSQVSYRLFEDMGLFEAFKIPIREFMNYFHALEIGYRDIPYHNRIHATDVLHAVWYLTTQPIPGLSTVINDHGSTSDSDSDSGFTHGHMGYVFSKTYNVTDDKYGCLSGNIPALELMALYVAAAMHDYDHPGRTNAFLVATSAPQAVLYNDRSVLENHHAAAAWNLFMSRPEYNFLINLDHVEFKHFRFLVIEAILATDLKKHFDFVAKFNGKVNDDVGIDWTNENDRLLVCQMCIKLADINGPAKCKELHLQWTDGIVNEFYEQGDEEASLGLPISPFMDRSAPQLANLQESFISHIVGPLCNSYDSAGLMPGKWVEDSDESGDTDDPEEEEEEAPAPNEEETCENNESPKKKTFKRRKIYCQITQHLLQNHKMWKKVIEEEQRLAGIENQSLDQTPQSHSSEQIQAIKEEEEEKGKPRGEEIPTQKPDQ

Sequence of human full length PDE3B (Q13370 whole entry): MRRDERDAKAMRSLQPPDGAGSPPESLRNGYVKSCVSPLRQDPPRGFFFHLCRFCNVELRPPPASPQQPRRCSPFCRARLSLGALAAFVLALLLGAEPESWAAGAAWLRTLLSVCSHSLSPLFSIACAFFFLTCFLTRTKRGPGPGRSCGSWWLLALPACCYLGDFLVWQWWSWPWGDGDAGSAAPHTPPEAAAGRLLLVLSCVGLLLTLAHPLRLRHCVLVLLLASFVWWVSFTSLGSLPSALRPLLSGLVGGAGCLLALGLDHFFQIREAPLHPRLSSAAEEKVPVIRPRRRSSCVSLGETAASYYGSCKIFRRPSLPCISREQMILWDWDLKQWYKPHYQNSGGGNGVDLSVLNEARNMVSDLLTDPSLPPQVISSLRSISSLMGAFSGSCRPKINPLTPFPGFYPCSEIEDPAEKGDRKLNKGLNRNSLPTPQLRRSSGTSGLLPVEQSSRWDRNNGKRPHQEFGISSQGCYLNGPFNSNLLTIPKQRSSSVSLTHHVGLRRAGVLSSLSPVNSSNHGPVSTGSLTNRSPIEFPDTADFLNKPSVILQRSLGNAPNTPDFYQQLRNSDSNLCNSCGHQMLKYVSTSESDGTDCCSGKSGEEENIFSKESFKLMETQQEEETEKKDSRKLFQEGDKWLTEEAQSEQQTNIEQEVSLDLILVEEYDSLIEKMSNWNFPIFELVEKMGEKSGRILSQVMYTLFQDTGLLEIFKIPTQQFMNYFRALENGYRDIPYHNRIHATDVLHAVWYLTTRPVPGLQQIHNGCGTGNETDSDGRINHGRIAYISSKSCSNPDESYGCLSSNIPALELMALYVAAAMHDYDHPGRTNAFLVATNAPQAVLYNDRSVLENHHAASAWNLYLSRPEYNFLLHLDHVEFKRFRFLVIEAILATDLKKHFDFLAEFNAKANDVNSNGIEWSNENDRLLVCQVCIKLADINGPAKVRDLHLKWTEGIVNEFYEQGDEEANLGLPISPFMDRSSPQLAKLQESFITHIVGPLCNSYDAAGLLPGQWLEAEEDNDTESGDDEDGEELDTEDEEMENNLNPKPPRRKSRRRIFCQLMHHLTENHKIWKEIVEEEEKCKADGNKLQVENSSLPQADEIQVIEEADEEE

For `Cc1ccncc1-c1ccc(C2=NNC(=O)OC2)cc1F` [Example 118, 5-[3-Fluoro-4-(4-methylpyridin-3-yl)phenyl]-3,6-dihydro-2H-1,3,4-oxadiazin-2-one], the IC50 in test [1] worked out at 6 nM; in test [2], 3 nM; in test [3], 64 nM; in test [4], 60 nM.

Take `Cn1cc(-c2ccc(C3=NNC(=O)OC3)cc2C(F)(F)F)cn1` [Example 45, 5-[4-(1-Methyl-1H-pyrazol-4-yl)-3-(trifluoromethyl)phenyl]-3,6-dihydro-2H-1,3,4-oxadiazin-2-one]: the IC50 was determined as 4 nM in test [1], 3 nM in test [2], 34 nM in test [3] and 43 nM in test [4].

For the compound `Nc1ccc(-c2ccc(C3=NNC(=O)OC3)cc2C(F)(F)F)cc1F` [Example 39, 5-[4′-Amino-3′-fluoro-2-(trifluoromethyl)biphenyl-4-yl]-3,6-dihydro-2H-1,3,4-oxadiazin-2-one], the concentration for half-maximal inhibition (IC50) came out at 6 nM in test [1], 4 nM in test [2], 75 nM in test [3] and 72 nM in test [4].

`COc1ccc(-c2ccc(C3=NNC(=O)OC3)cc2F)cn1` [Example 85, 5-[3-Fluoro-4-(6-methoxypyridin-3-yl)phenyl]-3,6-dihydro-2H-1,3,4-oxadiazin-2-one]: the concentration for half-maximal inhibition (IC50) in test [1] came out at 13 nM; in test [2] it was 7 nM; in test [3] it was 78 nM; in test [4] it was 33 nM.

For the compound `CC(C)(C)/C=C/c1ccc(C2=NNC(=O)OC2)cc1C(F)(F)F` [Example 144, 5-{4-[3,3-Dimethylbut-1-en-1-yl]-3-(trifluoromethyl)phenyl}-3,6-dihydro-2H-1,3,4-oxadiazin-2-one], the IC50 in test [1] stood at 13 nM; in test [2], 6 nM; in test [3], 100 nM; in test [4], 55 nM.

Turning to `Cn1cc(-c2ccc(C3=NNC(=O)OC3)cc2C(F)(F)F)c(C(F)(F)F)n1` [Example 127, 5-{4-[1-Methyl-3-(trifluoromethyl)-1H-pyrazol-4-yl]-3-(trifluoromethyl)phenyl}-3,6-dihydro-2H-1,3,4-oxadiazin-2-one], the IC50 in test [1] is > 100 nM; in test [2], > 100 nM; in test [3], 31 nM; in test [4], 78 nM.

As for `CC1OC(=O)NN=C1c1ccc(N2CCOCC2)cc1` (racemic) [Example 20, (rac)-6-Methyl-5-[4-(morpholin-4-yl)phenyl]-3,6-dihydro-2H-1,3,4-oxadiazin-2-one], the IC50 in test [1] is 41 nM; in test [2], 15 nM; in test [3], 100 nM; in test [4] it was 200 nM.

As to `O=C1NN=C(c2ccc(C3CCCOC3)c(C(F)(F)F)c2)CO1` (racemic) [Example 271, (rac)-5-{4-[Oxan-3-yl]-3-(trifluoromethyl)phenyl}-3,6-dihydro-2H-1,3,4-oxadiazin-2-one], the IC50 worked out at 3 nM in test [1], 1 nM in test [2], 25 nM in test [3] and 27 nM in test [4].

Regarding `Nc1cc(-c2ccc(C3=NNC(=O)OC3)cc2C(F)(F)F)c(F)cc1F` [Example 38, 5-[5′-Amino-2′,4′-difluoro-2-(trifluoromethyl)biphenyl-4-yl]-3,6-dihydro-2H-1,3,4-oxadiazin-2-one], the half-inhibitory concentration (IC50) in test [1] was > 100 nM; in test [2], 83 nM; in test [3], 260 nM; in test [4] it was 210 nM.

On to `COCCCNc1ccc(C2=NNC(=O)OC2)cc1C(F)(F)F` [Example 214, 5-{4-[(3-Methoxypropyl)amino]-3-(trifluoromethyl)phenyl}-3,6-dihydro-2H-1,3,4-oxadiazin-2-one], for which the 50% inhibitory concentration (IC50) in test [1] came out at 2 nM; in test [2], 1 nM; in test [3], 73 nM; in test [4] it was 59 nM.

As for `CNc1ccc(-c2ccc(C3=NNC(=O)OC3)cc2C(F)(F)F)cc1` [Example 55, 5-[4′-(Methylamino)-2-(trifluoromethyl)biphenyl-4-yl]-3,6-dihydro-2H-1,3,4-oxadiazin-2-one], the concentration for half-maximal inhibition (IC50) in test [1] is 14 nM; in test [2], 7 nM; in test [3] it was 250 nM; in test [4], 280 nM.

As for `O=C1NN=C(c2ccc(NCC(O)C(F)(F)F)c(C(F)(F)F)c2)CO1` (racemic) [Example 204, (rac)-5-[4-{[3,3,3-trifluoro-2-hydroxypropyl]amino}-3-(trifluoromethyl)phenyl]-3,6-dihydro-2H-1,3,4-oxadiazin-2-one], the 50% inhibitory concentration (IC50) in test [1] was found to be 2 nM; in test [2], 1 nM; in test [3] it was 110 nM; in test [4] it was 80 nM.

As for `Cc1ccc(-c2ccc(C3=NNC(=O)O[C@H]3C)cc2C(F)(F)F)cc1` [Example 189, (6S)-6-Methyl-5-[4′-methyl-2-(trifluoromethyl)[1,1′-biphenyl]-4-yl]-3,6-dihydro-2H-1,3,4-oxadiazin-2-one], the half-maximal inhibitory concentration (IC50) in test [1] is 12 nM; in test [2] it was 6 nM; in test [3], 200 nM; in test [4], 190 nM.

With `Nc1cc(-c2ccc(C3=NNC(=O)OC3)cc2C(F)(F)F)ccc1Cl` [Example 41, 5-[3′-Amino-4′-chloro-2-(trifluoromethyl)biphenyl-4-yl]-3,6-dihydro-2H-1,3,4-oxadiazin-2-one], the IC50 in test [1] stood at 21 nM; in test [2] it was 10 nM; in test [3] it was 31 nM; in test [4], 31 nM.

Take `Cc1ccccc1-c1ccc(C2=NNC(=O)OC2)cc1F` [Example 81, 5-(2-Fluoro-2′-methylbiphenyl-4-yl)-3,6-dihydro-2H-1,3,4-oxadiazin-2-one]: the IC50 in test [1] turned out to be 9 nM; in test [2], 4 nM; in test [3], 270 nM; in test [4], 130 nM.

Consider `Nc1ccc(-c2ccc(C3=NNC(=O)OC3)cc2C(F)(F)F)c(F)c1` [Example 44, 5-[4′-Amino-2′-fluoro-2-(trifluoromethyl)biphenyl-4-yl]-3,6-dihydro-2H-1,3,4-oxadiazin-2-one], for which the half-maximal inhibitory concentration (IC50) in test [1] worked out at 9 nM; in test [2] it was 14 nM; in test [3], 200 nM; in test [4] it was 190 nM.

As for `O=C1NN=C(c2ccc(-c3ccc(F)c(F)c3)c(C(F)(F)F)c2)CO1` [Example 61, 5-[3′,4′-Difluoro-2-(trifluoromethyl)biphenyl-4-yl]-3,6-dihydro-2H-1,3,4-oxadiazin-2-one], the half-inhibitory concentration (IC50) in test [1] turned out to be 16 nM; in test [2], 10 nM; in test [3] it was 320 nM; in test [4] it was 230 nM.

On to `Cc1cc(C2=NNC(=O)OC2)ccc1-c1ccnn1C` [Example 29, 5-[3-Methyl-4-(1-methyl-1H-pyrazol-5-yl)phenyl]-3,6-dihydro-2H-1,3,4-oxadiazin-2-one], for which the IC50 in test [1] is > 100 nM; in test [2], 46 nM; in test [3] it was 160 nM; in test [4], 300 nM.

In the case of `Cc1ccc(-c2ccc(C3=NNC(=O)O[C@H]3C)cc2C(F)(F)F)cc1F` [Example 178, (6S)-5-[3′-Fluoro-4′-methyl-2-(trifluoromethyl)[1,1′-biphenyl]-4-yl]-6-methyl-3,6-dihydro-2H-1,3,4-oxadiazin-2-one], the IC50 came out at 19 nM in test [1], 13 nM in test [2], 130 nM in test [3] and 140 nM in test [4].

Regarding `Nc1cc(-c2ccc(C3=NNC(=O)OC3)cc2OC(F)(F)F)ccc1F` [Example 60, 5-[3′-Amino-4′-fluoro-2-(trifluoromethoxy)biphenyl-4-yl]-3,6-dihydro-2H-1,3,4-oxadiazin-2-one], the half-maximal inhibitory concentration (IC50) in test [1] stood at 20 nM; in test [2], 13 nM; in test [3], 510 nM; in test [4] it was 270 nM.

As to `C=C(C)c1ccc(C2=NNC(=O)OC2)cc1C(F)(F)F` [Example 147, 5-[4-(Prop-1-en-2-yl)-3-(trifluoromethyl)phenyl]-3,6-dihydro-2H-1,3,4-oxadiazin-2-one], the IC50 in test [1] was determined as 39 nM; in test [2], 22 nM; in test [3], 310 nM; in test [4] it was 140 nM.

`Cc1cc(C2=NNC(=O)OC2)ccc1-c1cncnc1` [Example 14, 5-[3-Methyl-4-(pyrimidin-5-yl)phenyl]-3,6-dihydro-2H-1,3,4-oxadiazin-2-one]: the IC50 in test [1] turned out to be 64 nM; in test [2], 49 nM; in test [3] it was 71 nM; in test [4], 63 nM.

Consider `O=C1NN=C(c2ccc(-c3cc(F)ccc3F)c(F)c2)CO1` [Example 100, 5-(2,2′,5′-Trifluoro[1,1′-biphenyl]-4-yl)-3,6-dihydro-2H-1,3,4-oxadiazin-2-one], for which the IC50 was found to be 9 nM in test [1], 5 nM in test [2], 66 nM in test [3] and 48 nM in test [4].

Regarding `Cc1cc(C2=NNC(=O)OC2)ccc1-c1ccccc1` [Example 27, 5-(2-Methylbiphenyl-4-yl)-3,6-dihydro-2H-1,3,4-oxadiazin-2-one], the half-inhibitory concentration (IC50) in test [1] worked out at 6 nM; in test [2], 2 nM; in test [3], 110 nM; in test [4] it was 75 nM.
